Experiments:
[1] = Liver Microsome Stability Assay (human); conditions: human liver microsomes, with NADPH, 1.0 uM compound
Experimental: (§1) Stability of a compound was assessed in the presence of liver microsomes from various sources—mouse, rat, monkey and human liver microsomes. 1.0 uM compound, 0.4% DMSO in 0.1 M Potassium Phosphate with 1.0 mg/mL liver microsomes, were incubated at 37° C. with or without 1 mM NADPH. The samples were quenched at 0, and 30 minutes.

[2] = Liver Microsome Stability Assay (mouse); conditions: mouse liver microsomes, with NADPH, 1.0 uM compound
Experimental: as §1

[3] = system: IL-2-FL/Gaussia Luciferase; assay: Dox Induced IL2-FL-Gluc Assay; assay type: cell-based; conditions: for IC50: 24 hr Dox induction, 293FRT/TO cells, mean, read-out: 24 hr Dox Inducible IL2FLGluc 293FRT/TO: Mean IC50; for 24 hr Dox Inducible IL2FLGluc 293FRT/TO: IL2/PD1: ratio of IL2FLGluc IC50 to PD1ssGluc IC50, '<=>' given where both are I.A.
How it was run: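 Flp-In 293 T-REx cells stably carrying doxycycline-inducible full-length IL-2 (aa 1-153) fused at its C-terminus to Gaussia luciferase, selected with hygromycin and blasticidin. Cells were plated the day before, then treated with compounds in DMSO/media containing doxycycline at 37° C, 5% CO2.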

[4] = Liver Microsome Stability Assay (monkey); conditions: monkey liver microsomes, with NADPH, 1.0 uM compound
Experimental: as §1

[5] = Liver Microsome Stability Assay (rat); conditions: rat liver microsomes, with NADPH, 1.0 uM compound
Experimental: as §1

[6] = system: TNFα-FL/Gaussia Luciferase; assay: Dox Induced TNFα-FL-Gluc Assay; assay type: cell-based; conditions: for IC50: 24 hr Dox induction, 293FRT/TO cells, mean, read-out: 24 hr Dox Inducible TNFaFLGluc 293FRT/TO: Mean IC50; for 24 hr Dox Inducible TNFaFLGluc 293FRT/TO: TNF/PD1: ratio of TNFaFLGluc IC50 to PD1ssGluc IC50, '<=>' given where both are I.A.
How it was run: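 Flp-In 293 T-REx cells stably expressing full-length TNFα (aa 1-233) fused at its C-terminus to Gaussia luciferase under tetracycline-regulated control were plated the day before assay. Compound dilutions in DMSO/media containing doxycycline were added and incubated at 37 °C, 5% CO2. Unspecified stereochemistry denotes stereoisomer mixtures.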

[7] = system: multiple myeloma cell line U266B1; assay: U266 Cell Viability Assay; assay type: cell-based, human; conditions: Homo sapiens, U-266, 48 h, U266B1 cells, Celltiter-Glo
How it was run: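 Cells grown in RPMI 1640 with 10% FBS, 2 mM glutamine and penicillin/streptomycin were exposed to compound dilutions in DMSO/media for 48 hours at 37° C., 5% CO2. Viability was read by CellTiter-Glo luminescence. Undefined stereocentres mean data for stereoisomer mixtures.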

[8] = system: HER3-ss+4aa/Gaussia Luciferase; assay: Dox-Induced Her3-ss-Gluc Assay; assay type: cell-based; conditions: 24 hr Dox induction; 293FRT/TO cells; mean; read-out: 24 hr Dox Inducible Her3(ss + 4)Gluc 293FRT/TO: Mean IC50
How it was run: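 Stable Flp-In 293 T-REx line expressing Gaussia luciferase fused to the HER3 signal sequence plus 4 amino acids under tetracycline-regulated (T-REx) control. Cells plated the day before, then treated with compound dilutions in DMSO/media containing doxycycline and incubated at 37° C., 5% CO2.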

[9] = system: PD1-ss+10aa/Gaussia Luciferase; assay: Dox-Induced PD1-ss-Gluc Assay; assay type: cell-based; conditions: 24 hr Dox induction; 293FRT/TO cells; mean; read-out: 24 hr Dox Inducible PD1ssGluc 293FRT/TO: Mean IC50
How it was run: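 Gaussia luciferase fused downstream of the PD1 signal peptide plus 10 residues was expressed on doxycycline induction in stably transfected Flp-In 293 T-REx cells. Compounds were added with doxycycline and incubated at 37 °C, 5% CO2.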

[10] = system: multiple myeloma cell line NCI-H929; assay: H929 Cell Viability Assay; assay type: cell-based, human; conditions: Homo sapiens, NCI-H929, 48 h, NCI-H929 cells, Celltiter-Glo
How it was run: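 NCI-H929 cells, resuspended in RPMI 1640 with 10% FBS and 2 mM glutamine, were treated with compound dilutions in DMSO/media and incubated 48 hours at 37° C, 5% CO2. Viability was read by CellTiter-Glo luminescence. Compounds drawn without stereochemistry were tested as stereoisomer mixtures.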

O=C(Nc1nc([C@H]2C[C@@H](OCCO)CN2c2ccccc2)cs1)c1cccn1Cc1ccncc1 [Compound E32]
Liver Microsome Stability (Multiple Species): Human - % Remaining after 30 min w/NADPH [1]: 0.21%
Liver Microsome Stability (Multiple Species): Mouse - % Remaining after 30 min w/NADPH [2]: 3.3%
IC50 [3]: 3.94 µM
24 hr Dox Inducible IL2FLGluc 293FRT/TO: IL2/PD1 [3]: 3.9
Liver Microsome Stability (Multiple Species): Monkey - % Remaining after 30 min w/NADPH [4]: 0.09%
Liver Microsome Stability (Multiple Species): Rat - % Remaining after 30 min w/NADPH [5]: 0.79%
IC50 [6]: 7.08 µM
24 hr Dox Inducible TNFaFLGluc 293FRT/TO: TNF/PD1 [6]: 6.91
EC50 [7]: > 25 µM
IC50 [8]: 3.06 µM
IC50 [9]: 1.02 µM
EC50 [10]: 24.9 µM

O=C(Nc1nc(C2C3CN(c4ccccn4)CC32)cs1)c1cccn1Cc1ccncc1 (stereo not drawn) [Compound E33, N-(4-(3-(pyridin-2-yl)-3-azabicyclo[3.1.0]hexan-6-yl)thiazol-2-yl)-1-(pyridin-4-ylmethyl)-1H-pyrrole-2-carboxamide]
Liver Microsome Stability (Multiple Species): Human - % Remaining after 30 min w/NADPH [1]: 1.6%
Liver Microsome Stability (Multiple Species): Mouse - % Remaining after 30 min w/NADPH [2]: 2.58%
IC50 [3]: 14.8 µM
24 hr Dox Inducible IL2FLGluc 293FRT/TO: IL2/PD1 [3]: 12
Liver Microsome Stability (Multiple Species): Monkey - % Remaining after 30 min w/NADPH [4]: 0.1%
Liver Microsome Stability (Multiple Species): Rat - % Remaining after 30 min w/NADPH [5]: 0.18%
IC50 [6]: > 25 µM
24 hr Dox Inducible TNFaFLGluc 293FRT/TO: TNF/PD1 [6]: >20.3
EC50 [7]: > 25 µM
IC50 [8]: 3.92 µM
IC50 [9]: 1.23 µM
EC50 [10]: > 25 µM

COc1ccc(O[C@H]2CC[C@H](c3csc(NC(=O)c4cccn4Cc4ccncc4)n3)CC2)nc1 [Compound E34, N-(4-((1r,4r)-4-((5-methoxypyridin-2-yl)oxy)cyclohexyl)thiazol-2-yl)-1-(pyridin-4-ylmethyl)-1H-pyrrole-2-carboxamide]
Liver Microsome Stability (Multiple Species): Human - % Remaining after 30 min w/NADPH [1]: 0.19%
Liver Microsome Stability (Multiple Species): Mouse - % Remaining after 30 min w/NADPH [2]: 0.06%
IC50 [3]: 2.6 µM
24 hr Dox Inducible IL2FLGluc 293FRT/TO: IL2/PD1 [3]: 8.3
Liver Microsome Stability (Multiple Species): Monkey - % Remaining after 30 min w/NADPH [4]: 3.44%
Liver Microsome Stability (Multiple Species): Rat - % Remaining after 30 min w/NADPH [5]: 0.26%
IC50 [6]: 8.14 µM
24 hr Dox Inducible TNFaFLGluc 293FRT/TO: TNF/PD1 [6]: 26.1
EC50 [7]: 7.92 µM
IC50 [8]: 0.648 µM
IC50 [9]: 0.312 µM
EC50 [10]: 19.6 µM

COc1ccc(O[C@H]2CC[C@@H](c3csc(NC(=O)c4cccn4Cc4ccncc4)n3)CC2)nc1 [Compound E35, N-(4-((1s,4s)-4-((5-methoxypyridin-2-yl)oxy)cyclohexyl)thiazol-2-yl)-1-(pyridin-4-ylmethyl)-1H-pyrrole-2-carboxamide]
Liver Microsome Stability (Multiple Species): Human - % Remaining after 30 min w/NADPH [1]: 0.41%
Liver Microsome Stability (Multiple Species): Mouse - % Remaining after 30 min w/NADPH [2]: 0.08%
IC50 [3]: 0.927 µM
24 hr Dox Inducible IL2FLGluc 293FRT/TO: IL2/PD1 [3]: 6.3
Liver Microsome Stability (Multiple Species): Monkey - % Remaining after 30 min w/NADPH [4]: 0.7%
Liver Microsome Stability (Multiple Species): Rat - % Remaining after 30 min w/NADPH [5]: 1.2%
IC50 [6]: 4.83 µM
24 hr Dox Inducible TNFaFLGluc 293FRT/TO: TNF/PD1 [6]: 32.6
EC50 [7]: 18.2 µM
IC50 [8]: 0.388 µM
IC50 [9]: 0.148 µM
EC50 [10]: 8.64 µM

O=C(Nc1nc(C2C3CN(c4ccccc4)CC32)cs1)c1cccn1Cc1ccncc1 (stereo not drawn) [Compound E36, N-(4-(3-phenyl-3-azabicyclo[3.1.0]hexan-6-yl)thiazol-2-yl)-1-(pyridin-4-ylmethyl)-1H-pyrrole-2-carboxamide]
Liver Microsome Stability (Multiple Species): Human - % Remaining after 30 min w/NADPH [1]: 1.63%
Liver Microsome Stability (Multiple Species): Mouse - % Remaining after 30 min w/NADPH [2]: 27.8%
IC50 [3]: 1.71 µM
24 hr Dox Inducible IL2FLGluc 293FRT/TO: IL2/PD1 [3]: 6
Liver Microsome Stability (Multiple Species): Monkey - % Remaining after 30 min w/NADPH [4]: 0.83%
Liver Microsome Stability (Multiple Species): Rat - % Remaining after 30 min w/NADPH [5]: 1.49%
IC50 [6]: 5.07 µM
24 hr Dox Inducible TNFaFLGluc 293FRT/TO: TNF/PD1 [6]: 17.8
EC50 [7]: 13.8 µM
IC50 [8]: 0.89 µM
IC50 [9]: 0.284 µM
EC50 [10]: > 25 µM

O=C(Nc1nc(C2Cc3cccnc3C2)cs1)c1cccn1Cc1ccncc1 (stereo not drawn) [Compound E37, N-(4-(6,7-dihydro-5H-cyclopenta[b]pyridin-6-yl)thiazol-2-yl)-1-(pyridin-4-ylmethyl)-1H-pyrrole-2-carboxamide]
Liver Microsome Stability (Multiple Species): Human - % Remaining after 30 min w/NADPH [1]: 0.08%
Liver Microsome Stability (Multiple Species): Mouse - % Remaining after 30 min w/NADPH [2]: 0.18%
IC50 [3]: 16.5 µM
24 hr Dox Inducible IL2FLGluc 293FRT/TO: IL2/PD1 [3]: 5.7
Liver Microsome Stability (Multiple Species): Monkey - % Remaining after 30 min w/NADPH [4]: 0.08%
Liver Microsome Stability (Multiple Species): Rat - % Remaining after 30 min w/NADPH [5]: 0.34%
IC50 [6]: > 25 µM
24 hr Dox Inducible TNFaFLGluc 293FRT/TO: TNF/PD1 [6]: >8.63
EC50 [7]: > 25 µM
IC50 [8]: 8.04 µM
IC50 [9]: 2.9 µM
EC50 [10]: > 25 µM

COc1ccc(O[C@H]2CC[C@H](c3csc(NC(=O)c4cccn4Cc4ccncc4)n3)C2)nc1 [Compound E38, N-(4-((1S,3S)-3-((5-methoxypyridin-2-yl)oxy)cyclopentyl)thiazol-2-yl)-1-(pyridin-4-ylmethyl)-1H-pyrrole-2-carboxamide]
Liver Microsome Stability (Multiple Species): Human - % Remaining after 30 min w/NADPH [1]: 0.1%
Liver Microsome Stability (Multiple Species): Mouse - % Remaining after 30 min w/NADPH [2]: 0.25%
IC50 [3]: 1.87 µM
24 hr Dox Inducible IL2FLGluc 293FRT/TO: IL2/PD1 [3]: 3.8
Liver Microsome Stability (Multiple Species): Monkey - % Remaining after 30 min w/NADPH [4]: 0.13%
Liver Microsome Stability (Multiple Species): Rat - % Remaining after 30 min w/NADPH [5]: 0.33%
IC50 [6]: 5.28 µM
24 hr Dox Inducible TNFaFLGluc 293FRT/TO: TNF/PD1 [6]: 10.7
EC50 [7]: 23 µM
IC50 [8]: 1.12 µM
IC50 [9]: 0.493 µM
EC50 [10]: 23.8 µM

COc1ccc(O[C@@H]2CCC[C@H](c3csc(NC(=O)c4cccn4Cc4ccncc4)n3)C2)nc1 [Compound E39, N-(4-((1S,3R)-3-((5-methoxypyridin-2-yl)oxy)cyclohexyl)thiazol-2-yl)-1-(pyridin-4-ylmethyl)-1H-pyrrole-2-carboxamide]
Liver Microsome Stability (Multiple Species): Human - % Remaining after 30 min w/NADPH [1]: 0.34%
Liver Microsome Stability (Multiple Species): Mouse - % Remaining after 30 min w/NADPH [2]: 0.23%
IC50 [3]: 0.449 µM
24 hr Dox Inducible IL2FLGluc 293FRT/TO: IL2/PD1 [3]: 2.8
Liver Microsome Stability (Multiple Species): Monkey - % Remaining after 30 min w/NADPH [4]: 0.19%
Liver Microsome Stability (Multiple Species): Rat - % Remaining after 30 min w/NADPH [5]: 1.17%
IC50 [6]: 1.65 µM
24 hr Dox Inducible TNFaFLGluc 293FRT/TO: TNF/PD1 [6]: 10.3
EC50 [7]: 13.9 µM
IC50 [8]: 0.344 µM
IC50 [9]: 0.159 µM
EC50 [10]: 8.43 µM

Reference: US20230286973A1, “PROTEIN SECRETION INHIBITORS” (KEZAR LIFE SCIENCES, priority 2020, published 2023)
